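The concentration for 50% growth inhibition is given as GI50. TGI marks complete inhibition of growth.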
Columns and labels:
Test in all cases: NCI tumour cell line growth inhibition, 384-well format
[1] = test system: SNB-19 CNS
[2] = test system: SN12C renal
[3] = test system: SF-268 CNS
[4] = test system: HOP-62 NSCLC
[5] = test system: MCF7 breast
[6] = test system: HCT-116 colon
[7] = test system: DU-145 prostate
[8] = test system: LOX IMVI melanoma
[9] = test system: MOLT-4 leukemia
[10] = test system: NCI-H23 lung
[11] = test system: UACC-257 melanoma
[12] = test system: HCT-15 colon
[13] = test system: RXF 393 renal
[14] = test system: NCI-H322M lung
[15] = test system: NCI-H522 lung
[16] = test system: K-562 leukemia
[17] = test system: SK-MEL-5 melanoma
[18] = test system: EKVX NSCLC
[19] = test system: BT-549 breast
[20] = test system: MDA-MB-435 melanoma
[21] = test system: HT29 colon
[22] = test system: MALME-3M melanoma
[23] = test system: CAKI-1 renal
[24] = test system: OVCAR-8 ovarian
[25] = test system: COLO 205 colon
[26] = test system: OVCAR-3 ovarian
[27] = test system: A549 NSCLC
[28] = test system: T-47D breast
[29] = test system: NCI/ADR-RES ovarian
[30] = test system: SW-620 colon
[31] = test system: NCI-H226 lung
[32] = test system: KM12 colon
[33] = test system: IGROV1 ovarian
[34] = test system: OVCAR-5 ovarian
[35] = test system: SR leukemia
[36] = test system: ACHN renal
[37] = test system: SF-295 CNS
[38] = test system: UO-31 renal
[39] = test system: SF-539 CNS
[40] = test system: TK-10 renal
[41] = test system: SNB-75 CNS
[42] = test system: SK-OV-3 ovarian
[43] = test system: HL-60(TB) leukemia
[44] = test system: MDA-MB-468 breast
[45] = test system: NCI-H460 NSCLC
[46] = test system: RPMI-8226 leukemia
[47] = test system: SK-MEL-2 melanoma
[48] = test system: HCC-2998 colon
[49] = test system: CCRF-CEM leukemia
[50] = test system: PC-3 prostate
[51] = test system: OVCAR-4 ovarian
[52] = test system: 786-0 renal
[53] = test system: M14 melanoma
[54] = test system: SK-MEL-28 melanoma
[55] = test system: U251 glioblastoma
[56] = test system: HOP-92 NSCLC
[57] = test system: UACC-62 melanoma
[58] = test system: A498 renal
[59] = test system: MDA-MB-231 breast
[60] = test system: HS 578T breast

## Cc1nn(C)c(COc2ccc(N3CCN(S(=O)(=O)N(C)C)CC3)cc2)c1-c1cccc2c(CCCOc3cccc4ccccc34)c(C(=O)O)n(CCN3CCOCC3)c12
[1]
  GI50: 3.77 µM
  TGI: 12.8 µM
[2]
  GI50: 3.55 µM
  TGI: 12.7 µM
[3]
  GI50: 5.48 µM
  TGI: 15.2 µM
[4]
  GI50: 4.22 µM
  TGI: 11.3 µM
[5]
  GI50: 3.06 µM
  TGI: 8.69 µM
[6]
  GI50: 2.87 µM
  TGI: 8.51 µM
[7]
  GI50: 6.23 µM
  TGI: 16.2 µM
[8]
  GI50: 5.6 µM
  TGI: 13.5 µM
[9]
  GI50: 2.02 µM
  TGI: 3.66 µM
[10]
  GI50: 3.54 µM
  TGI: 9.43 µM
[11]
  GI50: 2.99 µM
  TGI: 7.34 µM
[12]
  GI50: 12.1 µM
  TGI: 25.5 µM
[13]
  GI50: 1.79 µM
  TGI: 5.04 µM
[14]
  GI50: 6.07 µM
  TGI: 14.6 µM
[15]
  GI50: 2.64 µM
  TGI: 5.42 µM
[16]
  GI50: 4.21 µM
  TGI: 13.8 µM
[17]
  GI50: 2.92 µM
  TGI: 7.26 µM
[18]
  GI50: 4.87 µM
  TGI: 16.7 µM
[19]
  GI50: 3.49 µM
  TGI: 8.64 µM
[20]
  GI50: 4.32 µM
  TGI: 14.6 µM
[21]
  GI50: 2.72 µM
  TGI: 7.13 µM
[22]
  GI50: 3.73 µM
  TGI: 10.5 µM
[23]
  GI50: 6.88 µM
  TGI: 17.6 µM
[24]
  GI50: 3.73 µM
  TGI: 12.9 µM
[25]
  GI50: 4.33 µM
  TGI: 13.3 µM
[26]
  GI50: 2.32 µM
  TGI: 5.26 µM
[27]
  GI50: 9.44 µM
  TGI: 23.3 µM
[28]
  GI50: 3.6 µM
  TGI: 10.8 µM
[29]
  GI50: 32.8 µM
  TGI: > 92.7 µM
[30]
  GI50: 3.46 µM
  TGI: 10.6 µM
[31]
  GI50: 3.65 µM
  TGI: 10.3 µM
[32]
  GI50: 4.51 µM
  TGI: 12.2 µM
[33]
  GI50: 3.11 µM
  TGI: 8.58 µM
[34]
  GI50: 5.75 µM
  TGI: 16.2 µM
[35]
  GI50: 1.57 µM
  TGI: 2.93 µM
[36]
  GI50: 6.55 µM
  TGI: 17.6 µM
[37]
  GI50: 2.94 µM
  TGI: 7.54 µM
[38]
  GI50: 9.73 µM
  TGI: 21.5 µM
[39]
  GI50: 3.57 µM
  TGI: 9.98 µM
[40]
  GI50: 4.94 µM
  TGI: 14.1 µM
[41]
  GI50: 3.52 µM
  TGI: 8.36 µM
[42]
  GI50: 5.61 µM
  TGI: 13.6 µM
[43]
  GI50: 2.12 µM
  TGI: 3.58 µM
[44]
  GI50: 2.3 µM
  TGI: 4.43 µM
[45]
  GI50: 5.22 µM
  TGI: 14.9 µM
[46]
  GI50: 1.76 µM
  TGI: 3.16 µM
[47]
  GI50: 2.14 µM
  TGI: 3.92 µM
[48]
  GI50: 3.09 µM
  TGI: 7.88 µM
[49]
  GI50: 2.41 µM
  TGI: 4.78 µM
[50]
  GI50: 3.72 µM
  TGI: 10.9 µM
[51]
  GI50: 3.43 µM
  TGI: 9.25 µM
[52]
  GI50: 5.67 µM
  TGI: 13.8 µM
[53]
  GI50: 4.13 µM
  TGI: 9.35 µM
[54]
  GI50: 3.07 µM
  TGI: 7.47 µM
[55]
  GI50: 3.67 µM
  TGI: 11.8 µM
[56]
  GI50: 3.32 µM
  TGI: 8.76 µM
[57]
  GI50: 2.67 µM
  TGI: 5.65 µM
[58]
  GI50: 3.63 µM
  TGI: 11.1 µM
[59]
  GI50: 4.49 µM
  TGI: 13.3 µM

## O=c1c(O)c(-c2ccc(O)c(O)c2)oc2cc(O)cc(O)c12
[1]
  GI50: 24.9 µM
  TGI: 71.7 µM
[2]
  GI50: 28.8 µM
  TGI: 79.8 µM
[3]
  GI50: 17.3 µM
  TGI: 40.2 µM
[4]
  GI50: 11.1 µM
  TGI: 23.1 µM
[5]
  GI50: 18.9 µM
  TGI: 33.8 µM
[7]
  GI50: 24.4 µM
  TGI: 94 µM
[9]
  GI50: 13.6 µM
  TGI: 26.6 µM
[10]
  GI50: 13.2 µM
  TGI: 29.7 µM
[11]
  GI50: 23.4 µM
  TGI: > 100 µM
[12]
  GI50: 27 µM
  TGI: 97.4 µM
[13]
  GI50: 18 µM
  TGI: 56.2 µM
[14]
  GI50: 26.1 µM
  TGI: 98.8 µM
[15]
  GI50: 8.75 µM
  TGI: 43.1 µM
[17]
  GI50: 16.8 µM
  TGI: 53.4 µM
[18]
  GI50: 24.6 µM
  TGI: > 100 µM
[19]
  GI50: 17 µM
  TGI: 61.7 µM
[20]
  GI50: 17 µM
  TGI: 54.6 µM
[21]
  GI50: 46.4 µM
  TGI: > 100 µM
[22]
  GI50: 20 µM
  TGI: 76.4 µM
[23]
  GI50: 44.8 µM
  TGI: > 100 µM
[24]
  GI50: 20.9 µM
  TGI: 55.2 µM
[25]
  GI50: > 100 µM
  TGI: > 100 µM
[26]
  GI50: 16.2 µM
  TGI: 42.3 µM
[27]
  GI50: 28.2 µM
  TGI: > 100 µM
[28]
  GI50: 19.9 µM
  TGI: 36.8 µM
[29]
  GI50: 20 µM
  TGI: 40.2 µM
[30]
  GI50: 41.9 µM
  TGI: > 100 µM
[60]
  GI50: 6.06 µM
  TGI: 23.1 µM
[31]
  GI50: 24.1 µM
  TGI: 69 µM
[32]
  GI50: 22.9 µM
  TGI: 96.5 µM
[33]
  GI50: 20.5 µM
  TGI: 55.7 µM
[34]
  GI50: 20.9 µM
  TGI: 62.5 µM
[35]
  GI50: 1.94 µM
  TGI: 3.53 µM
[36]
  GI50: 35.1 µM
  TGI: 88.2 µM
[37]
  GI50: 17.3 µM
  TGI: 33.2 µM
[39]
  GI50: 14.5 µM
  TGI: 32.6 µM
[40]
  GI50: 45.4 µM
  TGI: > 100 µM
[41]
  GI50: 14.3 µM
  TGI: 30.5 µM
[42]
  GI50: 19.8 µM
  TGI: 51.7 µM
[43]
  GI50: 12.4 µM
  TGI: 25.3 µM
[44]
  GI50: 2.54 µM
  TGI: 7.46 µM
[45]
  GI50: 14.9 µM
  TGI: 31.7 µM
[46]
  GI50: 15.3 µM
  TGI: 33.9 µM
[47]
  GI50: 19.1 µM
  TGI: 39.6 µM
[48]
  GI50: 29.4 µM
  TGI: 93.2 µM
[49]
  GI50: 13.7 µM
  TGI: 26.7 µM
[50]
  GI50: 25.5 µM
  TGI: 74.5 µM
[51]
  GI50: 19.1 µM
  TGI: 44.5 µM
[52]
  GI50: 36.5 µM
  TGI: > 100 µM
[53]
  GI50: 20.5 µM
  TGI: 47.1 µM
[54]
  GI50: 33.2 µM
  TGI: 93.1 µM
[55]
  GI50: 12.8 µM
  TGI: 36 µM
[56]
  GI50: 20.8 µM
  TGI: 65.7 µM
[57]
  GI50: 16.6 µM
  TGI: 33.5 µM
[58]
  GI50: 14.2 µM
  TGI: 73.2 µM
[59]
  GI50: 10.9 µM
  TGI: 40.3 µM
